Common to all, as to assay type: cell-based
Common to all, as to design: expressed in transfected cells; host or cells: Xenopus laevis oocytes injected with mutant RNA (pOTV vector)

Test [1] concerns the target T1, GlyT2 F515W mutant (Homo sapiens, UniProt Q9Y345, F515W).
T1 sequence (Q9Y345 1-797 F515W): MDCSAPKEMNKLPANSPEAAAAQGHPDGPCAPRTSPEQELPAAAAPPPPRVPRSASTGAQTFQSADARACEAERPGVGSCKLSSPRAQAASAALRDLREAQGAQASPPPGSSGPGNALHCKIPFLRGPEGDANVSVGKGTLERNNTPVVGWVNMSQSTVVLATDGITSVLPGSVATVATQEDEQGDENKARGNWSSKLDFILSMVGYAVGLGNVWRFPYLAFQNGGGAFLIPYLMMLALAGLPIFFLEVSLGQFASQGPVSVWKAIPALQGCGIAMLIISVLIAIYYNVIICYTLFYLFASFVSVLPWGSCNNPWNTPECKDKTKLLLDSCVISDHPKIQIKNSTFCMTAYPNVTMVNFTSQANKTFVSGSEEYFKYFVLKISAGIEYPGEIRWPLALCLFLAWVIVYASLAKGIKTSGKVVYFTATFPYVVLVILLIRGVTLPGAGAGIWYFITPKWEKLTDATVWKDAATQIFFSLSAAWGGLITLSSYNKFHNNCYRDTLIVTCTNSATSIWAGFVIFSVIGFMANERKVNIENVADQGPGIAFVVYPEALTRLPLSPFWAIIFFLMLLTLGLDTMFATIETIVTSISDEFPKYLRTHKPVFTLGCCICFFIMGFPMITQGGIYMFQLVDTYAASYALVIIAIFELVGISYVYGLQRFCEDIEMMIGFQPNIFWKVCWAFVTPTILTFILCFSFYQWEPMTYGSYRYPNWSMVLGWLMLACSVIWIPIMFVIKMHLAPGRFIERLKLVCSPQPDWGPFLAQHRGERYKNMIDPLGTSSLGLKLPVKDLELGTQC
As to the kind of experiment: Inhibitor concentration–responses on glycine transport currents, two-electrode voltage clamp. Particulars: for pIC50: F515W GlyT2 in Xenopus laevis oocytes. How it is done: (§1) Because of the slowly reversible nature of the compounds tested, inhibitor concentration–responses were performed cumulatively. An EC50 concentration of glycine was applied until a stable transport current was reached. EC50 concentrations of glycine were used to produce reliable currents for each transporter, and as the inhibitors are non-competitive, application of varying glycine concentrations is unlikely to affect their activity. Increasing concentrations of inhibitors were co-applied with glycine with each concentration producing a distinct plateau before the subsequent concentration was applied. Inhibitor concentration–responses were limited to a maximum concentration of 3 µM to mitigate the risk of changes to the free drug concentration because of micelle formation. Currents after the plateau of each inhibitor concentration were normalized to the current produced by application of glycine alone and fit using the method of least squares: Y=Bottom+(Top−Bottom)/(1+10^[X−LogIC50]), where X is log [inhibitor], Y is current normalized to glycine in the absence of inhibitor, and Top and Bottom are the maximal and minimal plateaus, respectively. The method of least squares was constrained to have the bottom value >0 and the hill slope as −1, enabling the calculation of IC50 values and the extent of inhibition produced by the maximal concentration applied.
(§2) IC50 values are presented as the mean and 95% confidence interval, whereas inhibition values are presented as the mean ± SEM. Data sets are n ≥ 5 from two batches of oocytes.
For orientation: Two-electrode voltage clamp holds a large cell at a set potential and records current.

The target of another test is T2, GlyT2 Y430L mutant (Homo sapiens, UniProt Q9Y345, Y430L).
T2 sequence (Q9Y345 1-797 Y430L): T1 sequence (Q9Y345 1-797 F515W) with Y430L, W515F
The test is described as above. The settings on record: for pIC50: Y430L GlyT2 in Xenopus laevis oocytes. How it is done:
as §1, §2

Test [2] concerns the target T1, GlyT2 F515W mutant. The experiment in a line: Inhibitor washout time course (reversibility). Particulars: for Half-life (transport current recovery) / Recovery at 30 Min: washout after 4 min IC50 concentration. How it is done: Reversibility of GlyT2 inhibitors was determined by applying an EC50 concentration of glycine followed by co-application of the inhibitor at an IC50 concentration once a stable current had been achieved. Inhibitors were applied for 4 min as this was sufficient time to produce substantial inhibition for each compound and allowed for their direct comparison. At the conclusion of 4 min (time 0), ND96 buffer was perfused through the recording chamber to wash the oocyte. […] Transport currents were normalized to glycine currents in the absence of inhibitor and converted to % recovery values via Y=It−It=0/Imax−It=0, where Y is % recovery, I is current in nA, Imax is the maximal current produced by the glycine EC50, and t is time in minutes. Washout kinetics were then determined by fitting % recovery values to the first-order rate equation: Y=(Y0−Plateau).e^(−Kt)+Plateau, where Y is the % recovery, Y0 is the point, which crosses the Y-axis (constrained to 0) and increases to the plateau (constrained to between 0 and 100), K is the rate constant (1/t), and t is time in minutes. […] Because of the slowly […] nature of the inhibitors, washout time courses involving cyclodextrin treatment could not be performed on the same cell. […] As these experiments could not occur on the same cell, differences in half-life and maximal recovery were analysed via an unpaired two-tailed t test.

The source of these data is publication PMC9873984, “Membrane cholesterol regulates inhibition and substrate transport by the glycine transporter, GlyT2” (Life Science Alliance, 2023).

Residue numbers refer to the chain shown, from its start. pIC50: −log10 of the molar value.

With `CCCCCCCC/C=C\CCCCCCCC(=O)N[C@@H](Cc1c[nH]c2ccccc12)C(=O)O` [Oleoyl-L-Tryptophan, oleoyl-L-tryptophan], the pIC50 (usually the IC50 on a negative log10 scale, so that one unit is a factor of ten) is 6.89 against GlyT2 F515W mutant [1] and 7.24 against GlyT2 Y430L mutant. Besides, the Inhibition (in general, the change of the read-out against control, counted positive when it falls) at 3 μM is 82.0 ± 3.9% at GlyT2 F515W mutant [1] (F515W) and 83.5 ± 3.2% at GlyT2 Y430L mutant (Y430L). The “Half-life (transport current recovery)” value at GlyT2 F515W mutant [2] (F515W) was “No Recovery”. For the same compound, the “Recovery at 30 Min” value on GlyT2 F515W mutant [2] (F515W) was “No Recovery”.
As to `CCCCCCCC/C=C\CCCCCCCC(=O)N[C@@H](CC(C)C)C(=O)O` [Oleoyl-L-Leucine, oleoyl-L-leucine], the figures for the pIC50 against GlyT2 F515W mutant [1] and against GlyT2 Y430L mutant were 6.40 and 6.43, respectively. For the same compound, the entries for the “Inhibition at 3 μM” value on GlyT2 F515W mutant [1] (F515W) and at GlyT2 Y430L mutant (Y430L) were 86.7 ± 1.7 % and 63.8 ± 2.6%, respectively. The “Increase in recovery of current 30 min after application, vs WT” value on GlyT2 F515W mutant [2] (F515W) worked out at 19.0%. Besides, the “Half-life (transport current recovery)” value at GlyT2 F515W mutant [2] (F515W) amounted to 2.0 ± 0.2 min. The “Recovery at 30 Min” value at GlyT2 F515W mutant [2] (F515W) is given as 70.1 ± 1.9 %.
Turning to `CCCCCCCC/C=C\CCCCCCCC(=O)O[C@H](CC(=O)[O-])C[N+](C)(C)C` [Oleoyl-L-Carnitine, oleoyl-L-carnitine], the “Inhibition at 1 µM (column head 3 μM, footnote b)” value on GlyT2 F515W mutant [1] (F515W, 1 µM) is recorded as 57.6 ± 2.3^b %; on GlyT2 Y430L mutant (Y430L, 1 µM), 49.6 ± 2.9^b %. The negative-log IC50 (pIC50) at GlyT2 Y430L mutant (95% CI could not be fit) was 5.96. Further, the “Increase of recovery at 30 min compared to WT” value at GlyT2 F515W mutant [2] (F515W vs WT) was 1.3 fold. In addition, on GlyT2 F515W mutant [2] (F515W), the “Recovery at 30 Min” value came to 60.1%.
In the case of `CCCCCCCC/C=C\CCCCCCCC(=O)N[C@@H](CCCCN)C(=O)O` [Oleoyl-L-Lysine, oleoyl-L-lysine], the negative logarithm of the IC50 (pIC50) was 6.16 against GlyT2 F515W mutant [1], 6.06 against GlyT2 Y430L mutant and 6.07 at GlyT2 Y430L mutant (listed as OLLys). Further, the “Inhibition at 3 μM” value is on record as 85.3 ± 6.4% on GlyT2 F515W mutant [1] (F515W) and 69.7 ± 4.7 % at GlyT2 Y430L mutant (Y430L). Moreover, the “Reduction of potency compared with WT” value at GlyT2 Y430L mutant (Y430L vs WT) is “fourfold”. Moreover, the “Recovery at 30 Min” value at GlyT2 F515W mutant [2] (F515W) was 57.8 ± 4.1%.
